Laboratory results from PubChem BioAssay (NCI).
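Assay format: 96-well plates, 48-hour exposure. The concentration for full growth arrest is given as TGI.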

Legend:
Experiment in all cases: DTP human tumour cell line panel, 48 h
[1] = system: NCI-H23 lung
[2] = system: HL-60(TB) leukemia
[3] = system: HCT-116 colon
[4] = system: M19-MEL melanoma
[5] = system: XF 498 CNS
[6] = system: CCRF-CEM leukemia
[7] = system: SN12C renal
[8] = system: NCI-H460 lung
[9] = system: SK-MEL-2 melanoma
[10] = system: SK-OV-3 ovarian
[11] = system: OVCAR-8 ovarian
[12] = system: SF-295 CNS
[13] = system: CAKI-1 renal
[14] = system: UACC-257 melanoma
[15] = system: U251 CNS
[16] = system: K-562 leukemia
[17] = system: HT29 colon
[18] = system: LXFL 529 NSCLC
[19] = system: SK-MEL-28 melanoma
[20] = system: SNB-19 CNS
[21] = system: SK-MEL-5 melanoma
[22] = system: ACHN renal
[23] = system: UACC-62 melanoma
[24] = system: OVCAR-3 ovarian
[25] = system: M14 melanoma
[26] = system: MALME-3M melanoma
[27] = system: HOP-62 NSCLC
[28] = system: COLO 205 colon
[29] = system: KM12 colon
[30] = system: SF-268 CNS
[31] = system: IGROV1 ovarian
[32] = system: A549 NSCLC
[33] = system: SF-539 CNS
[34] = system: DLD-1 colon
[35] = system: SR leukemia
[36] = system: RPMI-8226 leukemia
[37] = system: HCT-15 colon
[38] = system: UO-31 renal
[39] = system: LOX IMVI melanoma
[40] = system: NCI-H226 lung
[41] = system: SW-620 colon
[42] = system: MOLT-4 leukemia
[43] = system: KM20L2 colon
[44] = system: 786-0 renal
[45] = system: OVCAR-4 ovarian
[46] = system: NCI-H522 lung
[47] = system: RXF 393 renal
[48] = system: OVCAR-5 ovarian
[49] = system: HOP-18 NSCLC
[50] = system: EKVX NSCLC
[51] = system: SNB-78 CNS
[52] = system: SNB-75 CNS
[53] = system: A498 renal
[54] = system: PC-3 prostate
[55] = system: DU-145 prostate
[56] = system: T-47D breast
[57] = system: MDA-N
[58] = system: MCF7 breast
[59] = system: BT-549 breast
[60] = system: TK-10 renal
[61] = system: HCC-2998 colon
[62] = system: MDA-MB-435
[63] = system: MDA-MB-231 breast
[64] = system: HS 578T breast
[65] = system: HOP-92 NSCLC
[66] = system: NCI/ADR-RES ovarian
[67] = system: DMS 114 small cell lung
[68] = system: DMS 273 small cell lung

With `CSC1=Nc2ccccc2N=C(c2ccc(Cl)cc2)C1` the TGI [1] was > 100 µM, the TGI [2] was > 100 µM and the TGI [3] was > 100 µM. For the same compound, the TGI [4] was > 100 µM, the TGI [5] was > 100 µM and the TGI [6] was > 100 µM. For the same compound, the TGI [7] was > 100 µM, the TGI [8] was > 100 µM and the TGI [9] was 51.4 µM. The TGI [10] was > 100 µM, the TGI [11] was > 100 µM and the TGI [12] was > 100 µM. The TGI [13] was > 100 µM, the TGI [14] was 84.9 µM and the TGI [15] was > 100 µM. The TGI [16] was > 100 µM, the TGI [17] was 90 µM and the TGI [18] was > 100 µM. For the same compound, the TGI [19] was > 100 µM, the TGI [20] was > 100 µM and the TGI [21] was 51.3 µM. The TGI [22] was > 100 µM, the TGI [23] was > 100 µM and the TGI [24] was > 100 µM. For the same compound, the TGI [25] was > 100 µM, the TGI [26] was 92.6 µM and the TGI [27] was > 100 µM. For the same compound, the TGI [28] was > 100 µM, the TGI [29] was > 100 µM and the TGI [30] was > 100 µM. For the same compound, the TGI [31] was > 100 µM, the TGI [32] was > 100 µM and the TGI [33] was > 100 µM. For the same compound, the TGI [34] was > 100 µM, the TGI [35] was > 100 µM and the TGI [36] was > 100 µM. For the same compound, the TGI [37] was > 100 µM, the TGI [38] was > 100 µM and the TGI [39] was 72.1 µM. For the same compound, the TGI [40] was > 100 µM, the TGI [41] was > 100 µM and the TGI [42] was 67.4 µM. For the same compound, the TGI [43] was > 100 µM, the TGI [44] was > 100 µM and the TGI [45] was > 100 µM. For the same compound, the TGI [46] was > 100 µM, the TGI [47] was 79.2 µM and the TGI [48] was > 100 µM. The TGI [49] was > 100 µM, the TGI [50] was > 100 µM and the TGI [51] was > 100 µM.
With `CC(C)(C)c1cc(C(=O)/C=C/c2ccc3c(c2)OCO3)cc(C(C)(C)C)c1O` the TGI [1] was > 86.4 µM, the TGI [2] was 13.9 µM and the TGI [3] was 24.5 µM. It also gave a TGI [6] of 16.3 µM, a TGI [7] of 76.4 µM and a TGI [8] of 15.7 µM. For the same compound, the TGI [9] was 10.4 µM, the TGI [10] was > 100 µM and the TGI [11] was > 100 µM. The TGI [52] was 15.4 µM, the TGI [12] was > 31.2 µM and the TGI [53] was > 56.4 µM. The TGI [54] was 21.8 µM, the TGI [13] was > 100 µM and the TGI [14] was 22.1 µM. The TGI [15] was 19.3 µM, the TGI [55] was > 58 µM and the TGI [16] was > 39.1 µM. For the same compound, the TGI [17] was 28 µM, the TGI [56] was 23.8 µM and the TGI [19] was > 100 µM. For the same compound, the TGI [20] was > 70.2 µM, the TGI [57] was 5.53 µM and the TGI [21] was 16.6 µM. For the same compound, the TGI [58] was > 100 µM, the TGI [22] was > 100 µM and the TGI [23] was > 45.5 µM. It also gave a TGI [59] of 27.2 µM, a TGI [24] of 23 µM and a TGI [60] of 58.1 µM. For the same compound, the TGI [25] was 65.3 µM, the TGI [26] was > 53.4 µM and the TGI [61] was 3.74 µM. For the same compound, the TGI [27] was > 100 µM, the TGI [28] was 13.2 µM and the TGI [29] was 22.7 µM. The TGI [30] was > 41.6 µM, the TGI [31] was > 100 µM and the TGI [32] was > 86.6 µM. For the same compound, the TGI [62] was 7.04 µM, the TGI [63] was 37.7 µM and the TGI [64] was > 27.1 µM. For the same compound, the TGI [33] was 20 µM, the TGI [65] was > 100 µM and the TGI [35] was 10 µM. The TGI [36] was 16.9 µM, the TGI [37] was 33.9 µM and the TGI [38] was > 81 µM. For the same compound, the TGI [39] was > 55.8 µM, the TGI [40] was > 80.6 µM and the TGI [41] was 35.8 µM. For the same compound, the TGI [42] was > 26.6 µM, the TGI [44] was 21 µM and the TGI [45] was 78.7 µM. The TGI [46] was 66 µM, the TGI [66] was 16.8 µM and the TGI [47] was 7.58 µM. For the same compound, the TGI [48] was > 76.9 µM and the TGI [50] was > 100 µM.
In the case of `CCOC(=O)C(NC(=O)c1nc[nH]c1[N+](=O)[O-])C(C)C` (stereo not given), the TGI [1] was > 100 µM, the TGI [2] was > 100 µM and the TGI [3] was > 100 µM. The TGI [4] was > 100 µM, the TGI [5] was 93.2 µM and the TGI [6] was > 100 µM. The TGI [7] was > 100 µM, the TGI [8] was > 100 µM and the TGI [9] was > 100 µM. The TGI [10] was > 100 µM, the TGI [11] was > 100 µM and the TGI [52] was > 100 µM. The TGI [12] was > 100 µM, the TGI [53] was > 100 µM and the TGI [13] was > 100 µM. For the same compound, the TGI [14] was > 100 µM, the TGI [15] was > 100 µM and the TGI [16] was > 100 µM. For the same compound, the TGI [17] was > 100 µM, the TGI [18] was > 100 µM and the TGI [19] was > 100 µM. The TGI [20] was > 100 µM, the TGI [21] was > 100 µM and the TGI [22] was > 100 µM. For the same compound, the TGI [23] was > 100 µM, the TGI [24] was > 100 µM and the TGI [25] was > 100 µM. The TGI [26] was > 100 µM, the TGI [61] was > 100 µM and the TGI [27] was > 100 µM. The TGI [67] was > 100 µM, the TGI [28] was > 100 µM and the TGI [29] was > 100 µM. The TGI [30] was > 100 µM, the TGI [31] was > 100 µM and the TGI [32] was > 100 µM. The TGI [33] was > 100 µM, the TGI [34] was > 100 µM and the TGI [35] was > 100 µM. For the same compound, the TGI [36] was > 100 µM, the TGI [37] was > 100 µM and the TGI [38] was > 100 µM. The TGI [39] was > 100 µM, the TGI [40] was > 100 µM and the TGI [41] was > 100 µM. The TGI [42] was > 100 µM, the TGI [44] was > 100 µM and the TGI [45] was > 100 µM. The TGI [46] was > 100 µM, the TGI [68] was > 100 µM and the TGI [50] was > 100 µM.
`C#CCN(Cc1ccc2nc(OC)c(OC)nc2c1)c1cc(OC)c(OC)c(OC)c1` was tested, and the TGI [1] was 46.2 µM, the TGI [2] was 43.5 µM and the TGI [3] was > 68.8 µM. For the same compound, the TGI [6] was > 100 µM, the TGI [7] was 57.2 µM and the TGI [8] was > 87.2 µM. For the same compound, the TGI [9] was > 87.8 µM, the TGI [10] was > 100 µM and the TGI [11] was 64.3 µM. The TGI [52] was > 100 µM, the TGI [12] was > 100 µM and the TGI [53] was > 84.5 µM. For the same compound, the TGI [54] was > 91.5 µM, the TGI [13] was > 82.8 µM and the TGI [14] was > 100 µM. The TGI [15] was > 80.2 µM, the TGI [55] was > 74.5 µM and the TGI [16] was > 100 µM. For the same compound, the TGI [17] was 72 µM, the TGI [56] was > 100 µM and the TGI [19] was > 100 µM. The TGI [20] was > 80.9 µM, the TGI [57] was 45.5 µM and the TGI [21] was 23.1 µM. The TGI [58] was > 66 µM, the TGI [22] was > 100 µM and the TGI [23] was > 97.2 µM. The TGI [59] was > 72.4 µM, the TGI [24] was > 100 µM and the TGI [60] was > 100 µM. For the same compound, the TGI [25] was 71.2 µM, the TGI [26] was 83.8 µM and the TGI [61] was > 100 µM. The TGI [27] was > 67.9 µM, the TGI [28] was 41.5 µM and the TGI [29] was 54.9 µM. The TGI [30] was > 94.1 µM, the TGI [31] was > 69.6 µM and the TGI [32] was > 89.6 µM. The TGI [62] was 74.7 µM, the TGI [63] was 43.5 µM and the TGI [64] was 79.1 µM. The TGI [33] was 43.6 µM, the TGI [65] was 62.6 µM and the TGI [35] was > 61.7 µM. For the same compound, the TGI [36] was 28.3 µM, the TGI [37] was > 87.5 µM and the TGI [38] was > 89.1 µM. The TGI [39] was > 48.9 µM, the TGI [40] was 60.6 µM and the TGI [41] was > 100 µM. For the same compound, the TGI [42] was 72.6 µM, the TGI [44] was 78.7 µM and the TGI [45] was > 46.9 µM. For the same compound, the TGI [46] was 36.1 µM, the TGI [66] was 53.7 µM and the TGI [47] was > 75.1 µM. For the same compound, the TGI [48] was > 85.8 µM and the TGI [50] was > 86 µM.
